Paper PMC5073322, “Novel Natural Product-like Caged Xanthones Bearing a Carbamate Moiety Exhibit Antitumor Potency and Anti-Angiogenesis Activity In vivo” (Scientific Reports, 2016)

What was measured:
HCT116 = assay: MTT antiproliferative assay, HCT116; conditions: read-out: IC50 HCT116; MTT, 72 h
Procedure: (§1) The inhibition of tumour cell growth was measured by a modified tetrazolium (MTT) salt assay, as previously described[39]. Cells were cultured in a 96-well plate and treated with culture medium alone or different concentrations of the compounds. The cells were incubated for 72 h, and then, the MTT assay reagent was added. After a 4 h incubation, the formazan product was quantitated at 570 nm. The IC50 values (the concentrations that gave rise to 50% inhibition of cell viability) were calculated using GraphPad Prism 6 using a variable slope (four parameters).

HepG2 = assay: MTT antiproliferative assay, HepG2; conditions: read-out: IC50 HepG2; MTT, 72 h
Procedure: as §1

[1] = system: zebrafish embryos (intersegmental vessels); assay: In vivo fluorescent zebrafish angiogenesis assay; conditions: 24 h
Procedure: Zebrafish has been proposed as a valid alternative animal model for investigating angiogenesis. The effect of 8n on embryonic angiogenesis in zebrafish was evaluated.
Transgenic zebrafish (VEGFR2: GFP) embryos were supplied using the drug screening platform of the Shandong Academy of Sciences Institute; they were grown and maintained according to the same protocols. The screen was carried out in 24-well plates. Compounds were prepared initially as a 10 mg/mL stock solution in dimethyl sulfoxide (DMSO). The stock solution was diluted to the relevant assay concentration with fish water, and 0.5% DMSO served as a vehicle control. The embryos were distributed in 24-well plates, with 10 embryos placed in each well. Then, a diluted solution of each compound was added. The embryos were exposed to the compound solution and incubated at 28.5 °C. After 24 h, the zebrafish were anesthetized with 0.01% tricaine and imaged under a fluorescence microscope (Olympus, Inc.) equipped with a SZX16 microscope and a DP2-BSW digital camera (Olympus, Inc.). The animal experiments were performed in accordance with the approval of the Chinese Academy of Medical Sciences and the Biology Institute of Shandong Academy of Sciences. All studies were performed in accordance with the approved guidelines from the China Zebrafish Resource Center with the approved protocol number of 2012CB944504.

A549/taxol = assay: MTT antiproliferative assay, Taxol-resistant A549; format: cell-based; conditions: read-out: IC50 A549/taxol; MTT, 72 h; Taxol-resistant A549
Procedure: as §1

A549 = assay: MTT antiproliferative assay, A549; conditions: read-out: IC50 A549; MTT, 72 h

Q: What does the source list for CC(C)=CCC12OC(C)(C)C3CC(C=C4C(=O)c5c(OC(=O)N6CCC(N7CCCCC7)CC6)cccc5OC431)C2=O (stereo not drawn) [Compound 8n]?
A: IC50 (HCT116): 970 ± 120 nM; IC50 (HepG2): 1320 ± 450 nM; formation of intersegmental vessels ([1]; 10 μg/ml or 5 μg/ml): considerably inhibited; formation of intersegmental vessels ([1]; 50 μg/ml): completely blocked; IC50 (A549/taxol): 1900 ± 120 nM; IC50 (A549): 7230 ± 560 nM
